# US4716225A, “Radioopaque sugar derivatives and a method of metabolic mapping using the same” (priority 1985, dated 1987)
# “Also recorded” adds a separate entry of the source. Where two headings read alike, the source gives them in different places.
# Legend:
# [1] = Observation of side effects after intravenous injection in dogs; format: in vivo, Mongrel dogs
# Description: (§1) Mongrel dogs (40-50 lbs) were injected intravenously with a bolus of α-D-galactose sufficient to raise the blood concentration to a level of 10^-2 M. They were then required to walk from the animal facility to the CAT scanner, approximately 10 minutes, where they were anesthetized. Anesthesia was induced with thiamytal (lmg/kg) and the animal was intubated with a cuffed endotrachial tube. Following induction, anesthesia was maintained with a gaseous mixture of Halothane, nitrous oxide and oxygen.
# (§2) The time elapsed from injection to the start of the scan was approximately 1 hour. CAT scanning data were recorded on tape and served as a background control. Upon completion of scanning, the dog was recovered from anesthesia and returned to the animal facility, where routine care was resumed.
# (§3) This procedure was repeated one day later; however, 6-IG was injected to an initial blood concentration of 10^-2 M. Nine days and 33 days following the injection, repeat scans were performed to ensure that the contrast medium had cleared.
# brain [2] = assay: CAT scanning of dog brain after injection of contrast medium; format: in vivo
# Description: as §1, §2, §3
# The dog's brains were scanned by CAT in sequential slices in 3 mm. increments. […] The arrow indicates the regions where contrast was observed.
# [3] = Gross toxicology after intravenous (tail vein) injection in mice and rats; format: in vivo
# Description: (§4) Gross Toxicology. In order to be economical with the product, the gross toxicology of 6-IG was first determined in mice and rats. Enough material was injected in a volume of 0.1 ml into the tail vein to raise the blood concentration to 10^-3, 10^-2, and 10^-1 M, (0.02-2.11 g/kg). As an osmotic control, equimolar amounts of α-D-galactopyranose were injected into age matched animals.
# 6-IG was injected intravenously into 20 g male mice and equivalent amounts of α-D-galactopyranose were injected into age-matched controls. […] Three days post-injection, the animals were killed by ether inhalation and autopsied.
# brain [4] = assay: Feasibility calculation of brain concentration of 6-iodo-D-galactose; design: species or system human
# From the text: It appears feasible to achieve such concentrations in, for example, brain tissue, by administering a sufficient amount of 6-iodo-D-galactose to obtain an initial blood concentration of about 10^-2 M in the patient.
# However, it is proposed to use 6-iodo-D-galactose or other such 2-, 5- or 6-substituted hexoses. […] But the uptake of galactose relative to 2-deoxyglucose is 31%. Therefore, it is estimated that the total brain concentration of 6-iodo-D-galactose is approximately 20%×0.31, or 6% of the initial blood concentration. When the initial blood concentration is 10^-2 M, final brain concentration would approximate 6×10^-4 M. To achieve this, it is necessary to inject approximately 15 grams of iodogalactose. [formula]
# An adult has a blood volume of approximately 4-5 L, so to achieve the desired concentration of 10^-2 M (moles per liter) of 6-iodo-galactosewhose formula weight is 290 g/mole will require:
# wt=(5 liter)(1 X10^-2 mole/liter)(290 g/mole)=14 g.
# Thus, the criterion of having a brain concentration within the range of 10^-4 to 10^-3 M is met. Although this concentration is the lower limit of detection, it should not deleteriously affect the clarity of the brain CAT scan. […]
# [5] = Observation of side effects after injection into mice, rats, and dogs; format: in vivo; details: in the concentrations described
# Description: This is the region associated with limb and tail movement in the dog. […] Thus, the accumulation can be made to be selective.
# as §4, §1
# [6] = tested on: blood/brain barrier saturable carrier of glucose; details: cited from earlier work
# brain [7] = details: 0.5 mg FDG injection, cited from earlier work
compound,measurement,setting,value
"O[C@@H]1[C@@H](O)[C@@H](O)O[C@H](CI)[C@@H]1O [6-IG, 6-iodo-6-deoxy-α-D-galactopyranose]",apparent side effects,"[1]; dogs, i.v., initial blood concentration 10^-2 M",Neither the control nor the iodinated injection medium had any apparent side effects
same,"contrast accumulation in the cortical area, posterior portion of frontal lobe","brain [2]; 1 hour post-injection, initial blood concentration 10^-2 M",accumulated in the cortical area of the posterior portion of the frontal lobe within one hour after injection; also recorded: beginning of accumulation as early as 1 hour post-injection
same,contrast in pareital region and other areas of the brain,brain [2]; 9 days post-injection (FIG. 3),"no contrast is seen in the pareital lobe intracellular section shown in FIG. 3, nor in any other areas of the brain that were scanned; also recorded: no contrast medium has accumulated in that section of the brain"
same,"contrast accumulation in the cortical area, posterior portion of frontal lobe","brain [2]; 9 days post-injection, initial blood concentration 10^-2 M",greater contrast is seen in the same region 9 days post-injection; also recorded: greater contrast in the same cortical regions
same,clearance of contrast medium,"brain [2]; 33 days post-injection, initial blood concentration 10^-2 M",cleared completely
same,accumulation and clearance compared to FDG (PET),brain [2]; compared to Fluorodeoxyglucose,relatively slower
same,time of peak concentration,"brain [2]; dog brain, between 1 hour and 9 days post-injection",some time inbetween
same,clearance of the compound,"brain [2]; dog brain, present at nine days post injection",relatively slow
same,distribution of accumulation in brain,brain [2]; general statement on accumulation in dog brain,accumulates in areas of the brain that are metabolically hyperactive in response to normal stimuli
same,distribution of accumulation after digitization,"brain [2]; slice of FIG. 2C, 9 days post-injection, background subtracted",generally greatest in the cortical region
same,immediate effects of injection on the animals,"[3]; 20 g male mice, i.v., max 2.11 g 6-IG/kg or equivalent amount of α-D-galactopyranose",no apparent immediate effects on the animals
same,gross findings at autopsy,"[3]; mice, three days post-injection, i.v., max 2.11 g 6-IG/kg",no gross findings
same,estimated total brain concentration as percent of initial blood concentration,brain [4]; calculated as 20%×0.31,~6%
same,concentration,"brain [4]; initial blood concentration 10^-2 M, read-out: estimated final brain concentration",~600 µM
same,obvious side effects,[5],do not produce any obvious side effects
"OC[C@H]1O[C@H](O)[C@H](O)[C@@H](O)[C@H]1O [α-D-galactopyranose, reference compound]",apparent side effects,"[1]; dog, in vivo, iv",Neither the control nor the iodinated injection medium had any apparent side effects
same,uptake relative to 2-deoxyglucose,[6],31%
same,crossing of blood/brain barrier,[6]; same saturable carrier as glucose,cross the blood/brain barrier by the same saturable carrier as glucose
same,gross findings at autopsy,"[3]; in vivo, iv",no gross findings
same,immediate effects of injection on the animals,"[3]; in vivo, iv",no apparent immediate effects on the animals
OC[C@H]1OC(O)C[C@@H](O)[C@@H]1O (stereo partly drawn) [2-deoxyglucose],crossing of blood/brain barrier,[6],cross the blood/brain barrier by the same saturable carrier as glucose
Fluorodeoxyglucose [FDG],brain concentration of FDG,brain [7]; after 40 minutes accumulation time,25 ng/cc
same,brain concentration as percent of initial blood concentration,"brain [7]; human, 40 min",20%
same,concentration,"brain [7]; read-out: molar brain concentration of FDG, after 40 minutes, brain cell volume 1 L",0.138 µM
